# From patent US6897291B1, “pH sensitive potassium channel in spermatocytes” (Icagen, Incorporated, priority 1997, dated 2005)
# Key:
# mSlo3 = target: T1, mSlo3 (Mus musculus, UniProt O54982, V141G); experiment: mSlo3 currents expressed in Xenopus oocytes, electrophysiology; format: cell-based
# T1 construct: A full-length mSlo3 cDNA was cloned into pBSC-MXT; expressed in transfected cells; host or cells: Xenopus oocytes (cRNA injection)
# T1 sequence (O54982 with tags, fused parts or gaps V141G limits assumed): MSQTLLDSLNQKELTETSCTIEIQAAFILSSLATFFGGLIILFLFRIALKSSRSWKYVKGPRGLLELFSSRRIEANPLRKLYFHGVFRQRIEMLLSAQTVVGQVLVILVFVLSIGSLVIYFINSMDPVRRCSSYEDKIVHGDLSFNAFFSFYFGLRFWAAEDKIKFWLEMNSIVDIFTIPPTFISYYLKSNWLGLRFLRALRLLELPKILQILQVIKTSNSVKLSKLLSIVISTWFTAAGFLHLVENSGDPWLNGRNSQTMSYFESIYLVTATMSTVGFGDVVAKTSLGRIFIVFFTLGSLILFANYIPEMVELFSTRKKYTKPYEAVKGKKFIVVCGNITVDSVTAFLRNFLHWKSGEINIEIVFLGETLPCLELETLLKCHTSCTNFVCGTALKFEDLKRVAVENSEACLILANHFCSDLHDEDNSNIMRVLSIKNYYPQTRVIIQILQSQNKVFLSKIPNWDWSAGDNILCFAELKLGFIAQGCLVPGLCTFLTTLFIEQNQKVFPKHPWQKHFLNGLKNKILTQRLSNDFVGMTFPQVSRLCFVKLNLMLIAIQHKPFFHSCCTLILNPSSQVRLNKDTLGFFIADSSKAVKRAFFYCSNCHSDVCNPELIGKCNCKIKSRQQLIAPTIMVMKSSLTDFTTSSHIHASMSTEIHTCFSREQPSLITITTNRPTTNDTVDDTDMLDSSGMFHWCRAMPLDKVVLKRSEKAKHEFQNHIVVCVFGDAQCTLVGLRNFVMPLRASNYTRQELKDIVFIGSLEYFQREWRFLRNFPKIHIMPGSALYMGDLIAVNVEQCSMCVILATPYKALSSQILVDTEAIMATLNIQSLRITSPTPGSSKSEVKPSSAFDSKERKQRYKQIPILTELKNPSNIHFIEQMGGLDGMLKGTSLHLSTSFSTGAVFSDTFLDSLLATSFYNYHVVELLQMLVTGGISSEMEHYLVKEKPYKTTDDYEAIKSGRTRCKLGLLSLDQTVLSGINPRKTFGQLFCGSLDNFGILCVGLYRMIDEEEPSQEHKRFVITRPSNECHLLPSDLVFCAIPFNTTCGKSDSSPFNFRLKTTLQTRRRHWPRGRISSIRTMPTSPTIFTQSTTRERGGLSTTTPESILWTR
# Method: A full-length mSlo3 cDNA was cloned into pBSC-MXT, a Bluescript-derived plasmid (Stratagene) containing Xenopus β-globin 5′ and 3′ untranslated sequences. cDNA expression constructs were linearized at a unique Not-I site, and capped cRNA was synthesized using the mMessage mMachine (Ambion). Reactions were precipitated with LiCl to remove the DNA template and resuspended in nuclease-free water at a final concentration of approximately 1 mg/ml. Oocytes were prepared for injection as previously described (Wei et al., Science 248:599-603 (1990)), except for the use of a Drummond nanojector. Approximately 50 nl of RNA in nuclease-free water was injected into each oocyte. Oocytes were incubated in ND96 medium (Wei et al., 1994, supra) and analyzed 1-8 days after injection.
# cRNA (40 nl at approximately […]) was injected into mature Xenopus oocytes; recordings were made 1-8 days later. For whole cell-recording, medium nd96 (concentrations in mM; 96 NaCl, 2 KCl, 1.8 CaCl2, 1 MgCl2, 5 HEPES, pH 7.5) supplemented with 1 mM DIDS (to block endogenous chloride currents) employed as bath solution, or modified as noted in figure legends. Patches were perfused with either 0 Ca^2+ EGTA solutions (160 K gluconate, 34 KOH, 10 HEPES, and 10 EGTA) or Ca^2+-containing (184 K gluconate, 10 KOH, 10 HEPES, 200 mM hemicalcium gluconate) solutions. HCl was used to adjust pH. Pipet solution contained 0.5 K gluconate, 0.5 KCl, 1.1 KOH, 10 HEPES, 159 Na gluconate, and 2 hemiMg gluconate, pH 7.1. Recording. Two-electrode voltage clamp was carried out with a TEV-200 amplifier (Dagan). Patch currents were recorded on either an Axopatch 1B or 200A amplifier (Axon), and digitized at either 3.4, 5 or 10 kHz. Data acquisition and analysis programs were CCURRENT and CQUANT (Dr. Keith Baker) or pClamp6 (Axon). Recordings were made at room temperature except tail currents which were recorded at 11° C. using a Peltier device (Cambion).
# mSlo1 = mSlo1 (Mus musculus, UniProt Q08460); conditions: mSlo1, comparison value; read-out: EC50 (sensitivity to TEA); cited from earlier work
# mSlo1, sequence (Q08460 whole entry): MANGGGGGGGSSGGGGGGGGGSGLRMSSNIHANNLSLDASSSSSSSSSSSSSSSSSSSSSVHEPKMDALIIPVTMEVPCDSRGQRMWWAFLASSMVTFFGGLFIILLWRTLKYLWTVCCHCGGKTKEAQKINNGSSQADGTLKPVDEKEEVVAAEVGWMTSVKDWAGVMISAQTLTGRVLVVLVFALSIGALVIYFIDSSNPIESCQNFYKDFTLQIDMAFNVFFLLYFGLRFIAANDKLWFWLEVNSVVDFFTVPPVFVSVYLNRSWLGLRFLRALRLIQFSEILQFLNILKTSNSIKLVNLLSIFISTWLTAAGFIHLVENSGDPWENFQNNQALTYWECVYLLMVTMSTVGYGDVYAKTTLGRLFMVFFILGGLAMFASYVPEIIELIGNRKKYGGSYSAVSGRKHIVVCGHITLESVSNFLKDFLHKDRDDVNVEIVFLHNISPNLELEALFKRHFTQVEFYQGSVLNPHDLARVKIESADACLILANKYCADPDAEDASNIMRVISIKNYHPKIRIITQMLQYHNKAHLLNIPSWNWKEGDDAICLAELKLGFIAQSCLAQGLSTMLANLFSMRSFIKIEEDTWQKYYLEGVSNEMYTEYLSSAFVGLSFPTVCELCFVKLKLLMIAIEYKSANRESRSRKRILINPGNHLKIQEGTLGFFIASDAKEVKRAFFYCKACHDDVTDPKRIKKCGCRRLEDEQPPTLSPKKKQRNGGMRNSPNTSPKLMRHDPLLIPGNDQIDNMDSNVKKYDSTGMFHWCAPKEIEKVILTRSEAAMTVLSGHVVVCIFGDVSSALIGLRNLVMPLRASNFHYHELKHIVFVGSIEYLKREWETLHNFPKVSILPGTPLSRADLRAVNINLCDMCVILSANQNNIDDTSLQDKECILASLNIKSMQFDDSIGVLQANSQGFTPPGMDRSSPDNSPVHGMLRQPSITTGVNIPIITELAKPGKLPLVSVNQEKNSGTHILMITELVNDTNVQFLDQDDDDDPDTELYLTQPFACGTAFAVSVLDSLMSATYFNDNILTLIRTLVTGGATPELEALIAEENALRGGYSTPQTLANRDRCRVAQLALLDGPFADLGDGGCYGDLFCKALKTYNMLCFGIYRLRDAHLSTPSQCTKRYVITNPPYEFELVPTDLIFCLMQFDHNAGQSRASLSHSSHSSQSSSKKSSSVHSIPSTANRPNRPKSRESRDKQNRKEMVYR
compound,measurement,setting,value
CC[N+](CC)(CC)CC [TEA],EC50,"mSlo3; mSlo3 expressed in Xenopus oocytes, read-out: EC50 (sensitivity to TEA)",~100 mM
same,EC50,mSlo1,< 0.2 mM
charybdotoxin,effect on mSlo3 currents,mSlo3; charybdotoxin 50 nM,did not affect
iberiotoxin (QFTDVDCSVSKECWSVCKDLFGVDRGKCMGKKCRCYQ),effect on mSlo3 currents,mSlo3; iberiotoxin 20 nM,did not affect
